Earlier results in patent publication US20170135934A1, “Mouth Rinse for Prevention of Periodontal Disease” (priority 2015, published 2017).
Where two headings read alike, the source gives them in different places. Residues, ends and D or L forms follow the SMILES beside them.

How the values were obtained:
[1] = healthy volunteers; for urinary losses of dipeptides: continuous infusion; for side effects: continuous infusion of supplemented amino acid solution
[2] = test system: biopsies from normal human ileum, proximal colon and rectosigmoid colon; details: compared with saline
[3] = test system: intracellular glutamine pool; details: intravenous supply following cholecystectomy
[4] = patients, TPN over 5 days
rat lymphocytes = details: glutamine added to the medium
[5] = test system: intestinal epithelial cell; details: heat shock at 43 degrees C.; concentrations higher than 1 mM

For `C[C@H](N)C(=O)N[C@@H](CCC(N)=O)C(=O)O` [AlaGln, L-Alanyl-L-gutamine] (H-Ala-Gln-OH), the “urinary losses of dipeptides” value [1] is given as “about 1 % of the given dose”, the side effects [1] is given as “not accompanied by any side effects” and the crypt cell proliferation [2] is given as “equally stimulated crypt cell proliferation”. The “intracellular glutamine pool preserved” value [3] was 91 % of postoperative value, the peptide in plasma [4] was “not detectable” and the side effects [4] was “free of any side effects”.

For `NCC(=O)N[C@@H](CCC(N)=O)C(=O)O` [GlyGln, glycyl-L glutamine, reference compound] (H-Gly-Gln-OH), the “urinary losses of dipeptides” value [1] is listed as “about 1 % of the given dose” and the side effects [1] is listed as “not accompanied by any side effects”.

For `NC(=O)CC[C@H](N)C(=O)O` [glutamine], the “proliferation of rat lymphocytes (radioactive thymidine)” value (rat lymphocytes) is given as “four-fold”, the crypt cell proliferation [2] is given as “equally stimulated crypt cell proliferation” and the “percentage of floating cells” value [5] is given as “dose dependent decrease”.
